Drawing on patent publication US7534805B2, “Imidazole derivatives, their preparation and their use as medicaments” (Societe de Conseils de Recherches Et d'Applications …, priority 2003, dated 2009), this text covers melting point for 16 compounds.

As usually defined, the melting point is the temperature of the solid-liquid transition. For the compound `Fc1ccccc1COc1ccc(-c2c[nH]c(COc3ccccc3)n2)cc1` [Example 8, 4-{4-[(2-fluorobenzyl)oxy]phenyl}-2-(phenoxymethyl)-1H-imidazole], the melting point was in the range of 182 to 183 °C.
Under `CSc1ccc(Oc2ccc(-c3c[nH]c(COc4ccccc4)n3)cc2)cc1` [Example 26, 4-{4-[4-(methylthio)phenoxy]phenyl}-2-(phenoxymethyl)-1H-imidazole] stands 122 to 124 °C; under `CN(C)CCOc1ccc(-c2c[nH]c(COc3ccccc3)n2)cc1.Cl`, 206 to 208 °C.
For `c1ccc(OCc2nc(-c3ccc(Sc4ccccc4)cc3)c[nH]2)cc1` [Example 6, 2-(phenoxymethyl)-4-[4-(phenylthio)phenyl]-1H-imidazole], the melting point was in the range of 144 to 146 °C.
In the case of `Fc1cccc(Oc2ccc(-c3c[nH]c(COc4ccccc4)n3)cc2)c1` [Example 35, 4-[4-(3-fluorophenoxy)phenyl]-2-(phenoxymethyl)-1H-imidazole], the melting point was 177 to 179 °C.
Take `Fc1cccc(F)c1Oc1ccc(-c2c[nH]c(COc3ccccc3)n2)cc1` [Example 57, 4-[4-(2,6-difluorophenoxy)phenyl]-2-(phenoxymethyl)-1H-imidazole]: the melting point was in the range of 143 to 145 °C.
Under `Fc1ccc(F)c(Oc2ccc(-c3c[nH]c(COc4ccccc4)n3)cc2)c1` [Example 54, 4-[4-(2,5-difluorophenoxy)phenyl]-2-(phenoxymethyl)-1H-imidazole] stands 128 to 130 °C; under `O=C(Nc1ccc(F)cc1)c1ccc(-c2c[nH]c(COc3ccccc3)n2)cc1.O=C(O)C(F)(F)F`, 198 to 200 °C.
`c1ccc(OCc2nc(-c3ccc(OCCN4CCOCC4)cc3)c[nH]2)cc1` [Example 16, 4-(2-{4-[2-(phenoxymethyl)-1H-imidazol-4-yl]phenoxy}ethyl) morpholine] showed a melting point of 144 to 146 °C.
`c1ccc(SCc2nc(-c3ccc(-c4ccccc4)cc3)c[nH]2)cc1` [Example 2, 4-(1,1′-biphenyl-4-yl)-2-[(phenylthio)methyl]-1H-imidazole]: the melting point lay within 150 to 152 °C.
The result for `O=C(O)C(F)(F)F.c1ccc(OCc2nc(-c3ccc(Oc4ccccc4)cc3)c[nH]2)cc1` reads 112 to 114 °C.
Under `Clc1cccc(Oc2ccc(-c3c[nH]c(COc4ccccc4)n3)cc2)c1` [Example 46, 4-[4-(3-chlorophenoxy)phenyl]-2-(phenoxymethyl)-1H-imidazole] stands 146 to 148 °C; under `Fc1ccc(Oc2ccc(-c3c[nH]c(COc4ccccc4)n3)cc2)c(F)c1` [Example 55, 4-[4-(2,4-difluorophenoxy)phenyl]-2-(phenoxymethyl)-1H-imidazole], 131 to 133 °C; under `Brc1cccc(Oc2ccc(-c3c[nH]c(COc4ccccc4)n3)cc2)c1` [Example 44, 4-[4-(3-bromophenoxy)phenyl]-2-(phenoxymethyl)-1H-imidazole], 133 to 135 °C.
With `O=C(Nc1ccc(-c2c[nH]c(COc3ccccc3)n2)cc1)c1ccc(F)cc1` [Example 22, 4-fluoro-N-{4-[2-(phenoxymethyl)-1H-imidazol-4-yl]phenyl}benzamide], the melting point lay in the range of 224 to 225 °C.
For the compound `N#Cc1ccc(Oc2ccc(-c3c[nH]c(COc4ccccc4)n3)cc2)cc1` [Example 23, 4-{4-[2-(phenoxymethyl)-1H-imidazol-4-yl]phenoxy}benzonitrile], the melting point lay in the range of 179 to 181 °C.
